Data on two molecules can be found in US9358276B2, “Methods of diagnosing and treating small intestinal bacterial overgrowth (SIBO) and SIBO-related conditions” (Cedars-Sinai Medical Center, priority 1999, dated 2016).

One assay relates to intestinal transit. The assay can be described thus: Intestinal transit in fistulated dogs, Sqrt AUC of cumulative marker recovery. The class given is in vivo, dog. As to the method: In 4 dogs equipped with duodenal (10 cm from pylorus) and mid-gut (160 cm from pylorus) fistulas, as described hereinbelow (Example 14), intestinal transit was compared across an isolated 150 cm test segment (between fistulas) while 0, 15, 30 or 60 mM oleate was delivered into either the proximal or distal segment of the gut as a solution of mixed micelles in pH 7.0 phosphate buffer at 2 mL/min for 90 minutes. The segment of gut not receiving oleate was perfused with phosphate buffer, pH 7.0, at 2 mL/min. 60 minutes after the start of the perfusion, […] of ^99mTc-DTPA (diethylenetriaminepentaacetic acid) was delivered as a bolus into the test segment. Intestinal transit was then measured by counting the radioactivity of 1 ml samples collected every 5 minutes from the diverted output of the mid-gut fistula.
Intestinal transit was calculated by determining the area under the curve (AUC) of the cumulative percent recovery of the radioactive marker. The square root values of the AUC (Sqrt AUC), where 0=no recovery by 30 minutes and 47.4=theoretical, instantaneous complete recovery by time 0, were compared across region of fat exposure and oleate dose using 2-way repeated measures ANOVA (see Table 6 below).

The subject of assay [1] is SIBO. The assay can be described thus: Neomycin treatment of subjects with IBS and SIBO (LBHT, VAS). The class given is in vivo, human. Here is the method: Subjects were tested after an overnight fast. At time zero, each subject swallowed 15 ml of Chronulac formula, delivering 10 g of lactulose; every 5-20 min thereafter, for 2-4 hours, a 50 cm^3 end-expiratory breath sample was taken with an airtight sampling bag. Each breath sample was then analyzed for hydrogen content with a gas chromatograph (Quintron Model DP, Quintron Instrument Co., Division of E.F. Brewer Co, Menomonee Falls, Wis. 53051), standardized using a QuinGas standard as instructed by the manufacturer. Hydrogen peaks were plotted before and after an antimicrobial treatment regimen for comparison. The normal range for the second hydrogen peak was 0 to 20 ppm.
The two hundred-two (202) human subjects were assessed for SIBO with LBHT. Of the 202 subjects in the database, 95 claimed to have been given a diagnosis of IBS. […] After these 22 subjects were excluded, 73 subjects remained.
Of the 124, 92 (74%) were positive for SIBO. […] Therefore, the incidence of SIBO among the 110 untreated subjects was 92 (84%), showing a strong association between a suspected diagnosis of IBS and the presence of SIBO. After neomycin treatment (500 mg twice daily for ten days), 23 of these 92 returned for follow-up testing. On a visual analog scores (VAS), subjects were asked to rate their degree of post-treatment improvement. These 23 subjects reported a 60±31% improvement, although 17 had only partial eradication of SIBO, based on their LBHT results. (FIG. 1).
There was a likely selection bias in the database due to the fact that subjects were referred for LBHT, because their physicians suspected they had SIBO. To correct for this bias, a pilot study was also conducted looking at the incidence of bacterial overgrowth in patients with IBS. […] Eight human subjects with a suspected diagnosis of IBS, based on the Rome criteria, were tested for SIBO, using LBHT as described in Example 2. […] Six of the 7 subjects testing positive for SIBO returned approximately 10 days after completion of a 10 day course of neomycin as described above. […] The six subjects reported an average improvement in their IBS symptoms of 65±28% (Range: 20-100%) on VAS scoring.

For assay [2], the system named is SIBO. Nature of the assay: Neomycin/antibiotic treatment of subjects with fibromyalgia and SIBO. It counts as in vivo, human. An excerpt: Of these 37, 28 tested positive for SIBO.
These ten subjects reported a 63±19% overall improvement in their symptoms by VAS scoring. FIG. 3 compares the VAS scores for various symptoms reported by the subjects with a suspected diagnosis of fibromyalgia before and after neomycin treatment. Symptoms included bloating, gas, diarrhea, joint pain and fatigue to treatment. Subjects were asked to identify the symptom most improved. Five subjects reported that pain was the most improved; three subjects reported that the level of fatigue was most improved, and two others reported that their abdominal complaints improved the most. There was a negative correlation between the degree of improvement in the VAS scoring and the amount of residual hydrogen peak seen in LBHT. (Pearson=−0.689, p=0.02; FIG. 4).
Subsequently, forty-six human subjects with FM (ACR criteria) entered a double blind randomized placebo controlled trial. Each subject underwent LBHT, a tender point examination and completed a questionnaire at the initial (baseline) and at every subsequent visit. Subjects were randomized to receive neomycin (500 mg twice daily in liquid form) or a matched placebo, for 10 days. After completion of this treatment, subjects with persistent SIBO received antibiotics (open label) until at least partially eradication was confirmed by LBHT. […] Six out of 20 patients (30%) in the neomycin group achieved complete […] eradication in the blinded arm. […] (Initial data in Table 1a).

For assay [3], the system named is SIBO. The assay can be described thus: Neomycin treatment of chronic fatigue syndrome subjects with SIBO. The class given is in vivo, human. Here is the method: Thirty of 202 subjects in the database ([…]) had received a diagnosis of chronic fatigue syndrome. Of these 30 subjects, 21 (70%) had SIBO as indicated by LBHT, but four out of the nine without SIBO had recently taken antibiotics. Therefore, the prevalence of SIBO was 21 out of 26 (81%) subjects with a diagnosis of CFS. After treatment with neomycin (500 mg twice daily, 10-day course), nine of the 21 subjects diagnosed with CFS, returned for follow-up LBHT and questionnaire. […] (Table 2).

Assay [4] has as its system SIBO. Nature of the assay: Case: ADHD with SIBO, neomycin. The following applies: one patient. It counts as in vivo, human. From the text:
A person was brought in by their parent with a suspected diagnosis of attention deficit/hyperactivity disorder (AD type), made by a pediatrician. Concurrently, they also had significant bloating, gas and some alteration in bowel habits. They had initially been referred for diagnosis by their teachers and school counselors, because they had been having difficulty performing in school for the previous two to three years, after having previously been a very good student. Prior to the detection of SIBO, the subject had been treated with multiple pharmacologic agents for depression, including amitryptiline, with no noticeable improvement in their symptoms.
Additionally, they started to get AA≅ averages in school again after being in the AC≅ range.

For `CCCCCCCC/C=C\CCCCCCCC(=O)[O-].[Na+]` [oleate, sodium oleate], the “Sqrt AUC of cumulative percent marker recovery (mean ± SE)” value in the assay with intestinal transit (Distal 1/2 of gut, 15 mM) turned out to be 25.6 ± 1.4; with intestinal transit (Distal 1/2 of gut, 30 mM) it was 18.9 ± 1.5; in the assay on intestinal transit (Distal 1/2 of gut, 60 mM), 7.0 ± 3.8; in the assay with intestinal transit (Proximal 1/2 of gut, 15 mM, buffer control 41.4 ± 4.6) it was 41.6 ± 1.4; with intestinal transit (Proximal 1/2 of gut, 30 mM), 40.6 ± 10.2; in the assay on intestinal transit (Proximal 1/2 of gut, 60 mM) it was 34.4 ± 3.0.
For the molecule neomycin, the “degree of post-treatment improvement (VAS)” value with SIBO [1] (23 IBS subjects with SIBO, 500 mg twice daily for ten days) amounted to 60±31%. Besides, in the assay on SIBO [1] (of the 23 returning subjects), the “subjects with only partial eradication of SIBO (LBHT)” value came to 17. In addition, in the assay on SIBO [1] (pilot study, six subjects), the “average improvement in IBS symptoms on VAS scoring” value came to 65±28%, the “post-treatment breath hydrogen peaks” value is listed as 0-20 ppm and the “range of improvement in IBS symptoms on VAS scoring” value is given as 20-100%. In addition, the “eradication of SIBO (LBHT)” value with SIBO [1] (pilot study, six subjects, 10 day course) is reported as “completely eradicated”. In addition, the “patients achieving complete eradication of SIBO in the blinded arm” value in the assay on SIBO [2] (six out of 20, 500 mg twice daily liquid, 10 days) is 30%. In addition, the “eradication of SIBO (post-treatment LBHT)” value in the assay on SIBO [2] (ten fibromyalgia subjects) was “at least partially eradicated”. Moreover, in the assay with SIBO [2] (ten fibromyalgia subjects, 500 mg twice daily, 10-day course), the “overall improvement in symptoms by VAS scoring” value came out at 63±19%. For the same molecule, the “eradication of SIBO (LBHT)” value with SIBO [3] (all nine CFS subjects) is “at least partially eradication of SIBO”. For the same molecule, the “VAS score Fatigue, After Antibiotic” value in the assay with SIBO [3] (nine CFS patients) is 3.5 ± 1.4. In addition, the “VAS score Bloating, After Antibiotic” value in the assay on SIBO [3] (nine CFS patients, neomycin 500 mg twice daily, 10-day course) came out at 2.3 ± 1.7. Moreover, in the assay on SIBO [4], the concentration entry was “able to concentrate better”; the “time to relapse of attention problem and bacterial overgrowth” value is “Approximately two”. The “response to repeat treatment” value in the assay on SIBO [4] (repeat 500 mg twice daily for 10 days) is “improved concentration and resolution of bowel symptoms”. Also, in the assay on SIBO [4] (500 mg twice daily for 10 days), the bowel symptoms entry was “resolution of their bowel symptoms”.
